From PMC6792352, “Limited Chemical Structural Diversity Found to Modulate Thyroid Hormone Receptor in the Tox21 Chemical Library” (Environmental Health Perspectives, 2019)
Structures can show the parent of a compound that is named as a salt.

Assay: in vitro
Settings: rat, gh3-tre-luc cells

Compound	CC50 at 24 h (AC50 (uM) modified / 1000) [µM]	also measured
CC1=C2[C@H]3OC(=O)[C@@H](C)[C@@H]3CC[C@@]2(C)C=CC1=O [alpha-Santonin]	–	CC50 at 24 h (AC50 (uM) modified / 1000, Tox21_110001=Tox21_110445, viability, 1 nM T3 present, 24 h): > 50 µM
C=CCCCCCCCCCCC [1-Tridecene]	> 5	–
Clc1nc(C(Cl)(Cl)Cl)c(Cl)c(Cl)c1Cl [2,3,4,5-Tetrachloro-6-(trichloromethyl)pyridine]	22.4	–
CC1(C)O[C@@H]2C[C@H]3[C@@H]4CCC5=CC(=O)C=C[C@]5(C)[C@@]4(F)[C@@H](O)C[C@]3(C)[C@]2(C(=O)CO)O1 [Triamcinolone acetonide]	> 90	–
CCN1CCCC(OC(=O)C(c2ccccc2)c2ccccc2)C1 (stereo not drawn) [Piperidolate hydrochloride]	11.6	–
Clc1cnc(Oc2ccc(Oc3ncc(Cl)cc3Cl)cc2)c(Cl)c1 [1,4-Bis[2-(3,5-dichloropyridyloxy)]benzene]	> 60	–
CC(=O)OC(C)(C)C1CC=C(C)CC1 (stereo not drawn) [alpha-Terpinyl acetate]	> 90	–
C=Cc1ccc(C)cc1 [4-Methylstyrene]	> 90	–
COC(=O)c1ccc(OC)cc1 [Methyl 4-methoxybenzoate]	> 90	–
C=C(C)C(=O)OCCCCCCCCCCCCCCCCCC [Stearyl methacrylate]	> 20	–
[2H]C([2H])([2H])[C@H](N)Cc1ccccc1 [D-Amphetamine-d3 hemisulfate]	> 50	–
O=C1O[C@H]([C@@H](O)CO)C(O)=C1O [L-Ascorbic acid]	> 90	–
CCCN1C[C@H](CSC)C[C@@H]2c3cccc4[nH]cc(c34)C[C@H]21 [Pergolide methanesulfonate]	> 50	–
Cc1cc(CC(=O)O)n(C)c1C(=O)c1ccc(Cl)cc1 [Sodium zomepirac]	> 90	–
CO[C@H]1C[C@H](O[C@H]2[C@H](C)O[C@@H](O[C@@H]3/C(C)=C/C[C@@H]4C[C@@H](C[C@]5(C=C[C@H](C)[C@@H](C6CCCCC6)O5)O4)OC(=O)[C@@H]4C=C(C)[C@@H](O)[C@H]5OC/C(=C\C=C\[C@@H]3C)[C@]54O)C[C@@H]2OC)O[C@@H](C)[C@@H]1O [Doramectin]	2.94	–
Nc1nnnn1-c1ccccc1 [Fenamol]	> 50	–
C#C[C@]1(O)CC[C@H]2[C@@H]3CCC4=C(CCC(=O)C4)[C@H]3CC[C@@]21C [Norethynodrel]	> 20	–
CCCCCCCCCC[N+](C)(C)CCCCCCCCCC [Didecyldimethylammonium chloride]	10.7	–

Compound	CC50 at 24 h (AC50 (uM) modified / 1000) [µM]	also measured
CN(C)CCc1c[nH]c2ccc(CS(=O)(=O)N3CCCC3)cc12 [Almotriptan]	> 50	–
O=C1CCCN1CCO [1-(2-Hydroxyethyl)pyrrolidin-2-one]	> 90	–
CCOC(=O)COc1ccc(Cl)cc1Cl [2,4-D-ethyl ester]	–	CC50 at 24 h (AC50 (uM) modified / 1000, Tox21_110001=Tox21_302216, viability, 1 nM T3 present, 24 h): > 90 µM
O=C(Nc1ccc(Cl)c(Cl)c1)C1CC1 [Cypromid]	> 50	–
CCCCCCCCCCCCOS(=O)(=O)O [Sodium dodecyl sulfate]	> 90	–
C[C@H]1[C@@H]2Cc3ccc(O)cc3[C@@]1(C)CCN2C [(+)-Metazocine fumarate (2:1)]	–	CC50 at 24 h (AC50 (uM) modified / 1000, Tox21_110001=Tox21_112826, viability, 1 nM T3 present, 24 h): > 200 µM
CN1C(=O)CN2CCc3ccccc3C2c2cc(Cl)ccc21 (stereo not drawn) [Clazolam]	> 50	–
Nc1ncc([N+](=O)[O-])s1 [2-Amino-5-nitrothiazole]	> 90	–
C[C@]12C[C@H]3S[C@H]3C[C@@H]1CC[C@@H]1[C@@H]2CC[C@]2(C)[C@@H](O)CC[C@@H]12 [Epitiostanol]	–	CC50 at 24 h (AC50 (uM) modified / 1000, Tox21_110001=Tox21_110520, viability, 1 nM T3 present, 24 h): > 20 µM
CCCSP(=S)(OCC)Oc1ccc(Cl)cc1Cl (stereo not drawn) [Prothiofos]	–	CC50 at 24 h (AC50 (uM) modified / 1000, Tox21_110001=Tox21_301219, viability, 1 nM T3 present, 24 h): > 90 µM
COc1ccccc1O [2-Methoxyphenol]	> 90	–
Oc1cc2ccccc2c2ccccc12 [9-Phenanthrol]	6.81	–
Cc1c[nH]c(=S)[nH]c1=O [5-Methyl-2-thiouracil]	> 90	–
CNC(=O)OCC[N+](C)(C)C [Methylcarbamylcholine chloride]	–	CC50 at 24 h (AC50 (uM) modified / 1000, Tox21_110001=Tox21_111257, viability, 1 nM T3 present, 24 h): > 50 µM
N[C@@H](CSSC[C@H](N)C(=O)O)C(=O)O [L-Cystine]	> 50	–
NC(=O)c1ccc[n+]([C@@H]2O[C@H](COP(=O)([O-])OP(=O)(O)OC[C@H]3O[C@@H](n4cnc5c(N)ncnc54)[C@H](O)[C@@H]3O)[C@@H](O)[C@H]2O)c1 [Nadide]	> 20	–
Cc1c(F)c(N2CCNC(C)C2)cc2c1c(=O)c(C(=O)O)cn2C1CC1 (stereo not drawn) [Grepafloxacin hydrochloride]	> 50	–
Nc1ncnc2c1ncn2CCOCP(=O)(O)O [Adefovir]	> 50	–
